Experimental data reported in EP0026867A1, “Peptidylphosphonic acids, their preparation and use, and pharmaceutical preparations containing them” (F. HOFFMANN-LA ROCHE & CO. Aktiengesellschaft, priority 1979, dated 1981).
In brackets after ≈: the same amount, converted by molar mass.

Key:
Assay in all cases: in vitro antibacterial test (M.I.C.)
Type in all cases: cell-based
[1] = test system: E. coli; details: Escherichia coli
From the text: (§1) Die folgende Tabelle gibt die Resultate von in vitro Versuchen unter Verwendung von (1R)-1-(L-Pyroglutamyl-L-norvalyl-L-norvalylamirio)-ethylphosphonsäure gegen einige repräsentative pathogene Mikroorganismen wieder.

[2] = test system: H. influenzae; details: Haemophilus influenzae
From the text: as §1

[3] = test system: Klebsiella spp.
From the text: as §1

[4] = test system: S. albus; details: Staphylococcus albus
From the text: as §1

[5] = test system: S. faecalis; details: Enterococcus faecalis
From the text: as §1

[6] = test system: S. marcescens; details: Serratia marcescens
From the text: as §1

[7] = test system: S. pneumoniae; details: Streptococcus pneumoniae
From the text: as §1

[8] = test system: S. pyogenes; details: Streptococcus pyogenes
From the text: as §1

[9] = test system: Salmonella spp.
From the text: as §1

[10] = test system: Shigella spp.
From the text: as §1

CCC[C@H](NC(=O)[C@@H]1CCC(=O)N1)C(=O)N[C@@H](CCC)C(=O)N[C@@H](C)P(=O)(O)O [Beispiel 1, (1R)-1-(L-Pyroglutamyl-L-norvalyl-L-norvalylamino)-ethylphosphonsäure]
MIC [1]: 0.25 µg/mL (≈ 0.575 µM) | MIC [2]: 0.2 µg/mL (≈ 0.46 µM) | MIC [3]: 16 µg/mL (≈ 36.8 µM) | MIC [4]: 16 µg/mL (≈ 36.8 µM) | MIC [5]: 0.05 µg/mL (≈ 0.115 µM) | MIC [6]: 30 µg/mL (≈ 69.1 µM) | MIC [7]: 2.4 µg/mL (≈ 5.52 µM) | MIC [8]: 16 µg/mL (≈ 36.8 µM) | MIC [9]: 20 µg/mL (≈ 46 µM) | MIC [10]: 1.1 µg/mL (≈ 2.53 µM)
